# Measurements published in ChEMBL document CHEMBL1687752, “Impact of antifungal prophylaxis on colonization and azole susceptibility of Candida species” (2009).
# Tests used:
# Assay type in all cases: functional
# Nakaseomyces glabratus [1] = experiment: Ratio of CDR1 gene expression in Candida glabrata isolated from patient 491 receiving antifungal drug to CDR1 gene expression in Candida glabrata isolated from patient 491 by RT-PCR analysis
# Nakaseomyces glabratus [2] = experiment: Ratio of CDR1 gene expression in Candida glabrata isolated from patient 002 receiving antifungal drug to CDR1 gene expression in Candida glabrata isolated from patient 002 by RT-PCR analysis
# Pichia kudriavzevii [3] = experiment: Antifungal activity against 13 days cultured Candida krusei isolated from invasive fungal infected subject blood after 12 days of prophylaxis by broth microdilution method
# Candida albicans [4] = experiment: Antifungal activity against Candida albicans isolated from neutropenic subjects with AML or MDS receiving fluconazole assessed as maximum MIC by broth microdilution method
# Pichia kudriavzevii [5] = experiment: Antifungal activity against 19 days cultured Candida krusei isolated from invasive fungal infected subject blood receiving antifungal therapy for 19 days after 6 days of prophylaxis by broth microdilution method
# Nakaseomyces glabratus [6] = experiment: Ratio of ERG11 gene expression in Candida glabrata isolated from patient 002 receiving antifungal drug to ERG11 gene expression in Candida glabrata isolated from patient 002 by RT-PCR analysis
# Nakaseomyces glabratus [7] = experiment: Ratio of ERG11 gene expression in Candida glabrata isolated from patient 491 receiving antifungal drug to ERG11 gene expression in Candida glabrata isolated from patient 491 by RT-PCR analysis
# Nakaseomyces glabratus [8] = experiment: Ratio of CDR1 gene expression in Candida glabrata isolated from patient 807 receiving antifungal drug to CDR1 gene expression in Candida glabrata isolated from patient 807 by RT-PCR analysis
# Nakaseomyces glabratus [9] = experiment: Ratio of URA3 gene expression in Candida glabrata isolated from patient 002 receiving antifungal drug to URA3 gene expression in Candida glabrata isolated from patient 002 by RT-PCR analysis
# Nakaseomyces glabratus [10] = experiment: Ratio of URA3 gene expression in Candida glabrata isolated from patient 497 receiving antifungal drug to URA3 gene expression in Candida glabrata isolated from patient 497 by RT-PCR analysis
# Nakaseomyces glabratus [11] = experiment: Ratio of ERG11 gene expression in Candida glabrata isolated from patient 807 receiving antifungal drug to ERG11 gene expression in Candida glabrata isolated from patient 807 by RT-PCR analysis
# Nakaseomyces glabratus [12] = experiment: Ratio of CDR2 gene expression in Candida glabrata isolated from patient 002 receiving antifungal drug to CDR2 gene expression in Candida glabrata isolated from patient 002 by RT-PCR analysis
# Nakaseomyces glabratus [13] = experiment: Antifungal activity against 29 days cultured Candida glabrata isolated from neutropenic subject with AML or MDS pharynx after 48 days of prophylaxis by broth microdilution method
# Pichia kudriavzevii [14] = experiment: Antifungal activity against Candida krusei isolated from neutropenic subjects with AML or MDS prior to initiation of fluconazole therapy assessed as maximum MIC by broth microdilution method
# Pichia kudriavzevii [15] = experiment: Antifungal activity against Candida krusei isolated from HSCT recipients with acute or chronic GVHD prior to initiation of posaconazole therapy assessed as maximum MIC by broth microdilution method
# Candida albicans [16] = experiment: Antifungal activity against Candida albicans isolated from HSCT recipient 031 with acute or chronic GVHD mouth after 109 days prophylaxis by broth microdilution method
# Nakaseomyces glabratus [17] = experiment: Ratio of CDR1 gene expression in Candida glabrata isolated from patient 497 receiving antifungal drug to CDR1 gene expression in Candida glabrata isolated from patient 497 by RT-PCR analysis
# Nakaseomyces glabratus [18] = experiment: Antifungal activity against 88 days cultured Candida glabrata isolated from HSCT recipient with acute or chronic GVHD mouth receiving antifungal therapy for 75 days after 33 days of prophylaxis by broth microdilution method
# Nakaseomyces glabratus [19] = experiment: Ratio of CDR2 gene expression in Candida glabrata isolated from patient 497 receiving antifungal drug to CDR2 gene expression in Candida glabrata isolated from patient 497 by RT-PCR analysis
# Nakaseomyces glabratus [20] = experiment: Antifungal activity against 177 days cultured Candida glabrata isolated from HSCT recipient with acute or chronic GVHD mouth receiving antifungal therapy for 172 days after 114 days of prophylaxis by broth microdilution method
# Nakaseomyces glabratus [21] = experiment: Ratio of URA3 gene expression in Candida glabrata isolated from patient 807 receiving antifungal drug to URA3 gene expression in Candida glabrata isolated from patient 807 by RT-PCR analysis
# Pichia kudriavzevii [22] = experiment: Antifungal activity against Candida krusei isolated from neutropenic subjects with AML or MDS prior to initiation of posaconazole therapy assessed as maximum MIC by broth microdilution method
# Pichia kudriavzevii [23] = experiment: Antifungal activity against 16 days cultured Candida krusei isolated from neutropenic subject with AML or MDS pharynx receiving antifungal therapy for 19 days after 6 days of prophylaxis by broth microdilution method
# Nakaseomyces glabratus [24] = experiment: Ratio of URA3 gene expression in Candida glabrata isolated from patient 491 receiving antifungal drug to URA3 gene expression in Candida glabrata isolated from patient 491 by RT-PCR analysis
# Nakaseomyces glabratus [25] = experiment: Ratio of ERG11 gene expression in Candida glabrata isolated from patient 497 receiving antifungal drug to ERG11 gene expression in Candida glabrata isolated from patient 497 by RT-PCR analysis
# Candida tropicalis = experiment: Antifungal activity against -3 days cultured Candida tropicalis isolated from neutropenic subject with AML or MDS stool receiving antifungal therapy for 45 days after 24 days of prophylaxis by broth microdilution method
# Candida albicans [26] = experiment: Antifungal activity against Candida albicans isolated from neutropenic subjects with AML or MDS prior to initiation of posaconazole therapy by broth microdilution method
# Nakaseomyces glabratus [27] = experiment: Antifungal activity against 16 days cultured Candida glabrata isolated from invasive fungal infected subject blood after 17 days of prophylaxis by broth microdilution method
# Nakaseomyces glabratus [28] = experiment: Ratio of CDR2 gene expression in Candida glabrata isolated from patient 186 receiving antifungal drug to CDR2 gene expression in Candida glabrata isolated from patient 186 by RT-PCR analysis
# Nakaseomyces glabratus [29] = experiment: Ratio of CDR1 gene expression in Candida glabrata isolated from patient 186 receiving antifungal drug to CDR1 gene expression in Candida glabrata isolated from patient 186 by RT-PCR analysis
# Nakaseomyces glabratus [30] = experiment: Ratio of ERG11 gene expression in Candida glabrata isolated from patient 186 receiving antifungal drug to ERG11 gene expression in Candida glabrata isolated from patient 186 by RT-PCR analysis
# Nakaseomyces glabratus [31] = experiment: Ratio of CDR2 gene expression in Candida glabrata isolated from patient 975 receiving antifungal drug to CDR2 gene expression in Candida glabrata isolated from patient 975 by RT-PCR analysis
# Nakaseomyces glabratus [32] = experiment: Ratio of ERG11 gene expression in Candida glabrata isolated from patient 975 receiving antifungal drug to ERG11 gene expression in Candida glabrata isolated from patient 975 by RT-PCR analysis
# Nakaseomyces glabratus [33] = experiment: Antifungal activity against Candida glabrata isolated from HSCT recipient 491 with acute or chronic GVHD mouth after 112 days prophylaxis by broth microdilution method
# Nakaseomyces glabratus [34] = experiment: Ratio of URA3 gene expression in Candida glabrata isolated from patient 186 receiving antifungal drug to URA3 gene expression in Candida glabrata isolated from patient 186 by RT-PCR analysis
# Nakaseomyces glabratus [35] = experiment: Ratio of CDR1 gene expression in Candida glabrata isolated from patient 975 receiving antifungal drug to CDR1 gene expression in Candida glabrata isolated from patient 975 by RT-PCR analysis
Compound,MIC (Pichia kudriavzevii [3]) [µg/mL],MIC (Candida albicans [4]) [µg/mL],MIC (Pichia kudriavzevii [5]) [µg/mL],MIC (Nakaseomyces glabratus [13]) [µg/mL],MIC (Pichia kudriavzevii [14]) [µg/mL],MIC (Pichia kudriavzevii [15]) [µg/mL],MIC (Candida albicans [16]) [µg/mL],MIC (Nakaseomyces glabratus [18]) [µg/mL],MIC (Nakaseomyces glabratus [20]) [µg/mL],MIC (Pichia kudriavzevii [22]) [µg/mL],MIC (Pichia kudriavzevii [23]) [µg/mL],MIC (Candida tropicalis) [µg/mL],MIC50 (Candida albicans [26]) [µg/mL],MIC90 (Candida albicans [26]) [µg/mL],MIC (Nakaseomyces glabratus [27]) [µg/mL],further results
OC(Cn1cncn1)(Cn1cncn1)c1ccc(F)cc1F [FLUCONAZOLE],> 64,64,32,> 64,32,64,16,> 64,32,32,64,0.25,0.25,0.25,–,fold change (FC) (Nakaseomyces glabratus [1]): 4.5; fold change (FC) (Nakaseomyces glabratus [2]): 1.5; fold change (FC) (Nakaseomyces glabratus [6]): -1.2; fold change (FC) (Nakaseomyces glabratus [7]): 1.2; fold change (FC) (Nakaseomyces glabratus [8]): 4.3; fold change (FC) (Nakaseomyces glabratus [9]): -1.2; fold change (FC) (Nakaseomyces glabratus [10]): -1.2; fold change (FC) (Nakaseomyces glabratus [11]): 1.1; fold change (FC) (Nakaseomyces glabratus [12]): -1.2; fold change (FC) (Nakaseomyces glabratus [17]): 1.3; fold change (FC) (Nakaseomyces glabratus [19]): -1.2; fold change (FC) (Nakaseomyces glabratus [21]): 1.4; fold change (FC) (Nakaseomyces glabratus [24]): 1; fold change (FC) (Nakaseomyces glabratus [25]): -1.2
CCC(C)n1ncn(-c2ccc(N3CCN(c4ccc(OCC5COC(Cn6cncn6)(c6ccc(Cl)cc6Cl)O5)cc4)CC3)cc2)c1=O (stereo unspecified) [ITRACONAZOLE],0.25,8,0.25,8,0.5,16,0.03,2,1,0.5,0.5,0.03,0.015,0.03,> 8,–
CC[C@@H]([C@H](C)O)n1ncn(-c2ccc(N3CCN(c4ccc(OC[C@@H]5CO[C@@](Cn6cncn6)(c6ccc(F)cc6F)C5)cc4)CC3)cc2)c1=O [POSACONAZOLE],0.25,8,0.06,8,0.25,0.5,< 0.015,2,1,0.25,0.25,< 0.015,0.015,0.015,> 8,fold change (FC) (Nakaseomyces glabratus [28]): -1.45; fold change (FC) (Nakaseomyces glabratus [29]): -1.5; fold change (FC) (Nakaseomyces glabratus [30]): -1.4; fold change (FC) (Nakaseomyces glabratus [31]): 1.5; fold change (FC) (Nakaseomyces glabratus [32]): 1.6; MIC (Nakaseomyces glabratus [33]): 0.25 µg/mL; fold change (FC) (Nakaseomyces glabratus [34]): -1.4; fold change (FC) (Nakaseomyces glabratus [35]): 2.25
